“Also recorded” adds a separate entry of the source. Like-named read-outs stand apart in the source and are kept apart here.
Legend:
monomeric CsgA = biological target: T1, monomeric CsgA (Escherichia coli, UniProt P28307); assay: CsgA monomer stability, SDS-PAGE; type: biochemical; details: 10 µM CsgA, 20 h at 37°C, Coomassie Blue, seen already at molar ratio 16∶1 (CsgA∶LL-37)
T1 construct: made in house; host or cells: E. coli LSR12 (C600::csg), co-expressed with CsgG
Experimental: To confirm the inhibition of CsgA polymerization we sought to analyse the stability of the CsgA monomer in the absence and presence of LL-37. Freshly purified, monomeric CsgA (10 µM) was incubated for 20 h at 37°C without or with different concentrations of LL-37 and was subsequently separated by SDS-PAGE. After staining with Coomassie Blue, bands corresponding to LL-37 and/or CsgA in monomeric, dimeric or tetrameric form were visualized. When CsgA was incubated alone, monomers were not visible although sometimes dimers and/or tetramers could be observed. This finding indicates spontaneous formation of CsgA oligomers and/or larger polymers that can not migrate into the gel due to their size. […] This was already seen at a molar ratio of 16∶1 (CsgA∶LL-37). To exclude degradation of CsgA as a possible explanation for the lack of the gel band, polymerized CsgA was treated with 90% formic acid, dissolving polymeric CsgA into monomers. After this treatment, a band corresponding to monomeric CsgA was detectable in the gel (Figure 8A).
Samples were prepared in LDS (lithium dodecyl sulphate) sample buffer (4∶1) and incubated at 70°C for 10 min. Electrophoresis was performed using 4–12% Bis-tris NU-PAGE gels (Invitrogen) at 200 V for 35 min. Gels were stained with Coomassie Blue for 1 h and destained over night in 90% water, 8% methanol and 2% acetic acid (vol/vol/vol).

[1] = system: E. coli strain No. 12 and isogenic mutants; type: cell-based, Escherichia coli; details: for IC50: initially grown in biofilm (LB plates without salt), 10^5 CFU/ml, 0.6 µM to 20 µM peptide in 2-fold dilutions, LB broth without salt, 20 h, Alamar blue 570 nm, two experiments in triplicates, read-out: IC50 (concentration at which bacterial growth was inhibited to 50%)
Experimental: For further investigation, E. coli isolate No. 12 from a child with pyelonephritis was chosen. This was a typical isolate expressing both curli and cellulose as well as type 1 fimbriae and yielding an approximately median level of biofilm as measured on microtiter plates. One-step knockout of bcsA and csgBA was carried out according to the protocol of Datsenko and Wanner with modifications, [50]. The following mutants were constructed using oligos listed in Table 1; WE1 bcsA::Cm, deficient in cellulose production; WE11 csgBA::Cm, deficient in curli production; and WE16 csgBA bscA::Cm, deficient in both cellulose and curli production. Expression of curli and cellulose in strain No. 12 was confirmed by these knockouts. Production of type 1 fimbriae under the culture conditions used for experiments was confirmed by yeast agglutination (see below).
The susceptibility of wild-type and mutant E. coli strains to synthetic LL-37 and mCRAMP (Innovagen AB, Lund, Sweden) was determined using a broth microdilution method. Briefly, bacteria were grown overnight at 37°C on LB plates with or without salt, inhibiting or promoting the formation of biofilm, respectively. Then, bacteria were suspended in PBS and diluted in LB broth without salt in a concentration of 10^5 CFU/ml. The bacterial concentration was verified by viable count after serial dilutions in PBS. Bacteria (90 µl suspension) were grown in 96-well plates in the presence of 10 µl aqueous solution of synthetic LL-37 or mCRAMP in final concentrations ranging from 0.6 µM to 20 µM in 2-fold dilutions. After 20 h, bacterial viability was measured colorimetrically by reduction of Alamar blue (BioSource International, Camarillo, CA, USA) for 1 h at 37°C [57]. The IC50 was determined as the peptide concentration that gave 50% reduction of the absorbance at 570 nm relative to bacteria grown without peptide.

Pseudomonas aeruginosa = details: ref [46]; cited from earlier work
Source text: Biofilm inhibition by antimicrobial polypeptides has previously been described for Pseudomonas aeruginosa. […] A direct interaction with biofilm components was not investigated in these studies. The effect was rather related to an influence of LL-37 on the bacterial gene expression profile or an influence of lactoferrin on free iron. These and our findings stress an important anti-biofilm role of antimicrobial polypeptides in host defense. It is likely that the anti-biofilm activit ...

polymeric CsgA = biological target: T2, polymeric CsgA (Escherichia coli, UniProt P28307); assay: Surface plasmon resonance, polymeric CsgA; details: polymeric CsgA immobilized (7000 response units), 0.1 µM peptide, 20 µl/min for 3 min, HBS-EP, Biacore 3000; binding constants not determinable
T2 construct: made in house; host or cells: E. coli LSR12 (C600::csg), co-expressed with CsgG
Experimental: Binding analysis of LL-37 to both monomeric and polymeric CsgA was performed with surface plasmon resonance (Biacore 3000 instrument; Biacore AB, Uppsala, Sweden). Both monomeric and polymeric CsgA was immobilized on a CM5 sensor chip (Biacore AB) surface by amine coupling. The chip surface was normalized in 70% glycerol and lanes on the chip were activated with injection of 35 µL 0.05 M N-hydroxysuccinimide (NHS)/0.2 M N-ethyl-N′-[3-dimethylamino) propyl]carbodiimide (EDC). Polymeric or monomeric CsgA (1 µM in 10 mM sodium acetate, pH 4.5) was then immobilized on the chip to 7000 response units and 2000 response units, respectively. After immobilization, the lanes were subjected to 60 µL ethanolamine (1 M, pH 8.5) to deactivate remaining activated carboxylic groups. One lane, activated and deactivated, was used as negative control (without addition of CsgA). Standard Biacore HBS-EP (Biacore AB) was utilized as running buffer, and 0.1 µM LL-37, sLL-37 or VIP were injected at 20 µl/min for 3 min. The surface was regenerated after each cycle with 100 mM HCl.

T1 sequence (P28307 21-151): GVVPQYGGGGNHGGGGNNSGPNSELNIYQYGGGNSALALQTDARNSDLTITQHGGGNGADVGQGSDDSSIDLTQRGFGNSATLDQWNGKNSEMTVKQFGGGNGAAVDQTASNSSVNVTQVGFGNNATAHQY
T2 sequence (P28307 21-151): as above

Q: With `CC[C@H](C)[C@H](NC(=O)[C@H](CCCCN)NC(=O)[C@H](CCC(=O)O)NC(=O)[C@H](CCCCN)NC(=O)[C@H](CO)NC(=O)[C@H](CCCCN)NC(=O)[C@H](CCCNC(=N)N)NC(=O)[C@H](Cc1ccccc1)NC(=O)[C@H](Cc1ccccc1)NC(=O)[C@H](CC(=O)O)NC(=O)CNC(=O)[C@H](CC(C)C)NC(=O)[C@@H](N)CC(C)C)C(=O)NCC(=O)N[C@@H](CCCCN)C(=O)N[C@@H](CCC(=O)O)C(=O)N[C@@H](Cc1ccccc1)C(=O)N[C@@H](CCCCN)C(=O)N[C@@H](CCCNC(=N)N)C(=O)N[C@H](C(=O)N[C@H](C(=O)N[C@@H](CCC(N)=O)C(=O)N[C@@H](CCCNC(=N)N)C(=O)N[C@H](C(=O)N[C@@H](CCCCN)C(=O)N[C@@H](CC(=O)O)C(=O)N[C@@H](Cc1ccccc1)C(=O)N[C@@H](CC(C)C)C(=O)N[C@@H](CCCNC(=N)N)C(=O)N[C@@H](CC(N)=O)C(=O)N[C@@H](CC(C)C)C(=O)N[C@H](C(=O)N1CCC[C@H]1C(=O)N[C@@H](CCCNC(=N)N)C(=O)N[C@H](C(=O)N[C@@H](CCC(=O)O)C(=O)N[C@@H](CO)C(=O)O)[C@@H](C)O)C(C)C)[C@@H](C)CC)C(C)C)[C@@H](C)CC` [LL-37] as the compound, how does the “CsgA monomer band at 15 kDa in presence of LL-37” value (monomeric CsgA) read?
A: a band migrating at 15 kDa, the predicted size of monomeric CsgA, could be observed; also recorded: the CsgA monomer is visible after SDS-PAGE

Q: And the “difference in resistance between the strains” value ([1]; bacteria pre-grown planktonically, curli expression suppressed (data not shown))?
A: no significant difference in the resistance

Q: And the IC50 ([1]; curliated strains)?
A: 12 µM

Q: And the IC50 ([1]; non-curliated strains)?
A: 6 to 7 µM

Q: What about the “bacterial surface motility mediated by type IV pili” value (Pseudomonas aeruginosa) of the same compound?
A: increased bacterial surface motility

Q: What about the “binding / association and dissociation by SPR” value (polymeric CsgA) of the same compound?
A: higher association with CsgA than the control peptides; also recorded: stronger association and lower dissociation rates

Source: PMC2908543, “Uropathogenic Escherichia coli Modulates Immune Responses and Its Curli Fimbriae Interact with the Antimicrobial Peptide LL-37” (PLoS Pathogens, 2010)
